The assay addresses T1, human macrophage elastase (HME/hMMP-12) (Homo sapiens, UniProt P39900).
T1 construct: purchased R&D Systems 917-MP
The experiment in a line: In vitro HME inhibition test (standard or high-sensitivity). Particulars: in some cases mean values, rounded to two significant figures. It counts as biochemical. How it is done:
The potency of the compounds according to the invention with respect to HME (MMP-12) is determined in an in vitro inhibition test. The HME-mediated amidolytic cleavage of a suitable peptide substrate leads to an increase in fluorescent light therein. The signal intensity of the fluorescent light is directly proportional to the enzyme activity. The active concentration of a test compound at which half the enzyme is inhibited (50% signal intensity of the fluorescent light) is reported as the IC50 value.
In a 384 hole microtiter plate, in a total test volume of 41 μl, the test buffer (0.1 M HEPES pH 7.4, 0.15 M NaCl, 0.03 M CaCl2, 0.004 mM ZnCl2, 0.02 M EDTA, 0.005% Brij®), the enzyme (0.5 nM HME; R&D Systems, 917-MP, autocatalytic activation according to the manufacturer's instructions) and the intramolecularly quenched substrate [5 μM Mca-Pro-Leu-Gly-Leu-Glu-Glu-Ala-Dap(Dnp)-NH2; Bachem, M-2670] are incubated in the absence and presence of the test substance (as a solution in DMSO) at 37° C. for two hours. The fluorescence intensity of the test mixtures is measured (excitation […], emission 393 nm). The IC50 values are ascertained by plotting the fluorescent light intensity against the active ingredient concentration.
In this case, an enzyme concentration ten times lower is used (final concentration, e.g. 0.05 nM) in order to achieve an increased test sensitivity. The incubation period chosen for the test is correspondingly longer (e.g. 16 hours).
T1 sequence (P39900 106-470): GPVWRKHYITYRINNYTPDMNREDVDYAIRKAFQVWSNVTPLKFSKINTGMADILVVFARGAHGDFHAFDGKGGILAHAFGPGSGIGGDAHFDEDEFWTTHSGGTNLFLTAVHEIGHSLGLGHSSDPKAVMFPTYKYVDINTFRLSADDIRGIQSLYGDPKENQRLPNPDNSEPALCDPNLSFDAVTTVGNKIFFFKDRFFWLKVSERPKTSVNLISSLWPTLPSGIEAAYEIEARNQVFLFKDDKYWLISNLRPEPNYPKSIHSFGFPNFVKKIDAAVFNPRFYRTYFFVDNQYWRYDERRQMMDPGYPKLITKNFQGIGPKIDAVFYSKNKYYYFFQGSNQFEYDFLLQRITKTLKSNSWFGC
Take `COc1cccc(C(=O)COc2ccc3cc(C(=O)CC(CCn4nnc5ccccc5c4=O)C(=O)O)sc3c2)c1` (racemic) [Example 124, (+/−)-4-{6-[2-(3-Methoxyphenyl)-2-oxoethoxy]-1-benzothiophen-2-yl}-4-oxo-2-[2-(4-oxo-1,2,3-benzotriazin-3(4H)-yl)ethyl]butanoic acid]: the concentration for half-maximal inhibition (IC50) (in general, the concentration at which inhibition is half-maximal) was found to be 0.95 nM.

`O=C(CC(CCn1nnc2ccccc2c1=O)C(=O)O)c1cc2cc(OCCCC(F)(F)F)ccc2o1` (racemic) [Example 11, (+/−)-4-Oxo-2-[2-(4-oxo-1,2,3-benzotriazin-3(4H)-yl)ethyl]-4-[5-(4,4,4-trifluorobutoxy)-1-benzofur-2-yl]butanoic acid] registered an IC50 of 4.3 nM.

As to `CCCCCCCOc1ccc2c(C(=O)CC(CCn3nnc4ccccc4c3=O)C(=O)O)coc2c1` (single isomer, unassigned; (+)) [Example 103, (+)-4-[6-(Heptyloxy)-1-benzofur-3-yl]-4-oxo-2-[2-(4-oxo-1,2,3-benzotriazin-3(4H)-yl)ethyl]butanoic acid acid], the IC50 turned out to be 0.23 nM.

`O=C(CC(CCn1nnc2ccccc2c1=O)C(=O)O)c1cc2ccc(OCC3CCCO3)cc2s1` (racemic) [Example 117, (+/−)-4-Oxo-2-[2-(4-oxo-1,2,3-benzotriazin-3(4H)-yl)ethyl]-4-{6-[tetrahydrofuran-2-ylmethoxy]-1-benzothiophen-2-yl}butanoic acid] yielded a concentration for half-maximal inhibition (IC50) of 5.9 nM.

For `CC(C)COc1ccc2c(C(=O)CC(CCn3nnc4ccccc4c3=O)C(=O)O)coc2c1` (single isomer, unassigned; (+)) [Example 105, (+)-4-(6-Isobutoxy-1-benzofur-3-yl)-4-oxo-2-[2-(4-oxo-1,2,3-benzotriazin-3(4H)-yl)ethyl]butanoic acid], the IC50 turned out to be 0.21 nM.

On to `CCCCOc1ccc2cc(C(=O)CC(CCn3nnc4ccccc4c3=O)C(=O)O)oc2c1` (single isomer, unassigned; (+)) [Example 63, (+)-4-(6-Butoxy-1-benzofur-2-yl)-4-oxo-2-[2-(4-oxo-1,2,3-benzotriazin-3(4H)-yl)ethyl]butanoic acid], for which the half-inhibitory concentration (IC50) was determined as 2.2 nM.

As to `O=C(CC(CCn1nnc2ccccc2c1=O)C(=O)O)c1cc2ccc(OCC(=O)C3CC3)cc2s1` (racemic) [Example 115, (+/−)-4-[6-(2-Cyclopropyl-2-oxoethoxy)-1-benzothiophen-2-yl]-4-oxo-2-[2-(4-oxo-1,2,3-benzotriazin-3(4H)-yl)ethyl]butanoic acid], the IC50 was determined as 3.1 nM.

With `CC(C)CCCOc1ccc2cc(C(=O)CC(CCn3nnc4ccccc4c3=O)C(=O)O)oc2c1` (racemic) [Example 70, (+/−)-4-{6-[(4-Methylpentyl)oxy]-1-benzofur-2-yl}-4-oxo-2-[2-(4-oxo-1,2,3-benzotriazin-3(4H)-yl)ethyl]butanoic acid], the IC50 was found to be 4.1 nM.

The compound `CCCCCCOc1ccc2c(C(=O)CC(CCn3nnc4ccccc4c3=O)C(=O)O)coc2c1` (racemic) [Example 98, (+/−)-4-[6-(Hexyloxy)-1-benzofur-3-yl]-4-oxo-2-[2-(4-oxo-1,2,3-benzotriazin-3(4H)-yl)ethyl]butanoic acid] registered an IC50 of 0.4 nM.

`CC(C)CCCCOc1ccc2cc(C(=O)CC(CCn3nnc4ccccc4c3=O)C(=O)O)oc2c1` (racemic) [Example 72, (+/−)-4-{6-[(5-Methylhexyl)oxy]-1-benzofur-2-yl}-4-oxo-2-[2-(4-oxo-1,2,3-benzotriazin-3(4H)-yl)ethyl]butanoic acid] returned an IC50 of 3.1 nM.

In turn, `COc1ccc(CCOc2ccc3oc(C(=O)CC(CCn4nnc5ccccc5c4=O)C(=O)O)cc3c2)cc1` (racemic) [Example 3, (+/−)-4-{5-[2-(4-Methoxyphenyl)ethoxy]-1-benzofur-2-yl}-4-oxo-2-[2-(4-oxo-1,2,3-benzotriazin-3(4H)-yl)ethyl]butanoic acid] came in with an IC50 of 4.1 nM.

These data come from patent US20170121315A1, “HETEROBICYCLICALLY SUBSTITUTED 4-OXOBUTANE ACID DERIVATIVES AND USE THEREOF” (priority 2014, published 2017).
